ChEMBL document CHEMBL5052840, “Pharmaceutical compounds and therapeutic methods” (2020)
Calls of active or inactive are those of the source. The rule behind the calls is not given here.

How the values were obtained:
[1] = biological target: T1, Polycomb complex protein BMI-1 (Homo sapiens) (UniProt P35226); assay: Inhibition of BMI1 in human Glioblastoma cell 3D spheres at 7 to 10 nM assessed as reduction in phospho-RB levels measured up to 120 hrs by Western blotting method; format: cell-based; conditions: Glioblastoma cell line, dose 7-10 nM, time hrs <=120
T1 sequence (whole entry): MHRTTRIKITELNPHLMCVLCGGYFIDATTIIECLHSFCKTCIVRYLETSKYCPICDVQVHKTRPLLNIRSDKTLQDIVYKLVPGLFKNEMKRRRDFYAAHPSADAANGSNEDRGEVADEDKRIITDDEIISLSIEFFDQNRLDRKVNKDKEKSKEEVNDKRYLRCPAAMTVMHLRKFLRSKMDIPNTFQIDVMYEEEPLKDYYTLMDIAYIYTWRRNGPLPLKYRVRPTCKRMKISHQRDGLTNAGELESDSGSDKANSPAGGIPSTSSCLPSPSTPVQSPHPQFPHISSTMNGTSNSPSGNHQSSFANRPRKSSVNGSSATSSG

[2] = biological target: T1, Polycomb complex protein BMI-1 (Homo sapiens); assay: Inhibition of BMI1 in human Glioblastoma cell 3D spheres at 7 to 10 nM assessed as reduction in BMI1 protein levels measured up to 120 hrs by Western blotting method; format: cell-based; conditions: Glioblastoma cell line, dose 7-10 nM, time hrs <=120
[3] = biological target: T1, Polycomb complex protein BMI-1 (Homo sapiens); assay: Inhibition of BMI1 in human Glioblastoma cell 3D spheres at 7 to 10 nM assessed as reduction in PD-L1 protein levels measured up to 120 hrs by Western blotting method; format: cell-based; conditions: Glioblastoma cell line, dose 7-10 nM, time hrs <=120
[4] = biological target: T1, Polycomb complex protein BMI-1 (Homo sapiens); assay: Inhibition of BMI1 in human Glioblastoma cell 3D spheres at 7 to 10 nM assessed as reduction in phospho-RB levels measured by Western blotting method; format: cell-based; conditions: Glioblastoma cell line, dose 7-10 nM
[5] = biological target: T1, Polycomb complex protein BMI-1 (Homo sapiens); assay: Inhibition of BMI1 in human Glioblastoma cell 3D spheres at 7 to 10 nM assessed as reduction in BMI1 protein levels measured by Western blotting method; format: cell-based; conditions: Glioblastoma cell line, dose 7-10 nM
[6] = biological target: T1, Polycomb complex protein BMI-1 (Homo sapiens); assay: Inhibition of BMI1 in human Glioblastoma cell 3D spheres at 7 to 10 nM assessed as reduction in STAT1 levels measured by Western blotting method; format: cell-based; conditions: Glioblastoma cell line, dose 7-10 nM
[7] = AUC (infinity) in male C57BL/6 mouse brain at 10 mg/kg, po measured by LC/MS-MS analysis; format: ADME, organism-based; design: time infinity, route oral, dose 10 mg/kg; conditions: in vivo
[8] = Brain concentration in male C57BL/6 mouse at 2 mg/kg, iv administered as single dose measured at 0.35 hrs measured by LC/MS-MS analysis; format: ADME, organism-based; conditions: read-out: Drug uptake
[9] = Brain concentration in male C57BL/6 mouse at 10 mg/kg, po administered as single dose measured at 0.35 hrs measured by LC/MS-MS analysis; format: ADME, organism-based; conditions: read-out: Drug uptake
[10] = Cmax in male C57BL/6 mouse plasma at 2 mg/kg, iv measured by LC/MS-MS analysis; format: ADME, organism-based; design: route intravenous, dose 2 mg/kg
[11] = AUClast in male C57BL/6 mouse brain at 10 mg/kg, po measured by LC/MS-MS analysis; format: ADME, organism-based; conditions: in vivo
[12] = Plasma concentration in male C57BL/6 mouse at 10 mg/kg, ip administered as single dose measured at 3 hrs measured by LC/MS-MS analysis; format: ADME, organism-based
[13] = Oral bioavailability in male C57BL/6 mouse plasma at 10 mg/kg measured by LC/MS-MS analysis; format: ADME, organism-based
[14] = Plasma concentration in male C57BL/6 mouse at 10 mg/kg, po administered as single dose measured at 1 hr measured by LC/MS-MS analysis; format: ADME, organism-based
[15] = Brain concentration in male C57BL/6 mouse at 10 mg/kg, po administered as single dose measured at 1 hr measured by LC/MS-MS analysis; format: ADME, organism-based; conditions: read-out: Drug uptake
[16] = Brain concentration in male C57BL/6 mouse at 2 mg/kg, iv administered as single dose measured at 1 hr measured by LC/MS-MS analysis; format: ADME, organism-based; conditions: read-out: Drug uptake
[17] = AUClast in male C57BL/6 mouse brain at 10 mg/kg, ip measured by LC/MS-MS analysis; format: ADME, organism-based; conditions: in vivo
[18] = Brain concentration in male C57BL/6 mouse at 10 mg/kg, po administered as single dose measured at 3 hrs measured by LC/MS-MS analysis; format: ADME, organism-based; conditions: read-out: Drug uptake
[19] = Cmax in male C57BL/6 mouse brain at 2 mg/kg, iv measured by LC/MS-MS analysis; format: ADME, organism-based; design: route intravenous, dose 2 mg/kg
[20] = Brain concentration in male C57BL/6 mouse at 10 mg/kg, ip administered as single dose measured at 6 hrs measured by LC/MS-MS analysis; format: ADME, organism-based; conditions: read-out: Drug uptake
[21] = Plasma concentration in male C57BL/6 mouse at 10 mg/kg, po administered as single dose measured at 0.35 hrs measured by LC/MS-MS analysis; format: ADME, organism-based
[22] = Brain concentration in male C57BL/6 mouse at 10 mg/kg, ip administered as single dose measured at 3 hrs measured by LC/MS-MS analysis; format: ADME, organism-based; conditions: read-out: Drug uptake
[23] = Plasma concentration in male C57BL/6 mouse at 10 mg/kg, po administered as single dose measured at 6 hrs measured by LC/MS-MS analysis; format: ADME, organism-based
[24] = Brain concentration in male C57BL/6 mouse at 10 mg/kg, po administered as single dose measured at 0.08 hrs measured by LC/MS-MS analysis; format: ADME, organism-based; conditions: read-out: Drug uptake
[25] = Plasma concentration in male C57BL/6 mouse at 2 mg/kg, iv administered as single dose measured at 0.35 hrs measured by LC/MS-MS analysis; format: ADME, organism-based
[26] = Brain concentration in male C57BL/6 mouse at 10 mg/kg, ip administered as single dose measured at 0.35 hrs measured by LC/MS-MS analysis; format: ADME, organism-based; conditions: read-out: Drug uptake
[27] = Plasma concentration in male C57BL/6 mouse at 10 mg/kg, po administered as single dose measured at 3 hrs measured by LC/MS-MS analysis; format: ADME, organism-based
[28] = Plasma concentration in male C57BL/6 mouse at 10 mg/kg, po administered as single dose measured at 0.08 hrs measured by LC/MS-MS analysis; format: ADME, organism-based
[29] = AUClast in male C57BL/6 mouse brain at 2 mg/kg, iv measured by LC/MS-MS analysis; format: ADME, organism-based; conditions: in vivo
[30] = Brain concentration in male C57BL/6 mouse at 10 mg/kg, po administered as single dose measured at 6 hrs measured by LC/MS-MS analysis; format: ADME, organism-based; conditions: read-out: Drug uptake
[31] = Plasma concentration in male C57BL/6 mouse at 2 mg/kg, iv administered as single dose measured at 1 hr measured by LC/MS-MS analysis; format: ADME, organism-based
[32] = Brain concentration in male C57BL/6 mouse at 2 mg/kg, iv administered as single dose measured at 0.08 hrs measured by LC/MS-MS analysis; format: ADME, organism-based; conditions: read-out: Drug uptake
[33] = Plasma concentration in male C57BL/6 mouse at 10 mg/kg, ip administered as single dose measured at 1 hr measured by LC/MS-MS analysis; format: ADME, organism-based
[34] = Plasma concentration in male C57BL/6 mouse at 10 mg/kg, ip administered as single dose measured at 0.35 hrs measured by LC/MS-MS analysis; format: ADME, organism-based
[35] = Brain concentration in male C57BL/6 mouse at 10 mg/kg, ip administered as single dose measured at 1 hr measured by LC/MS-MS analysis; format: ADME, organism-based; conditions: read-out: Drug uptake
[36] = Brain concentration in male C57BL/6 mouse at 10 mg/kg, ip administered as single dose measured at 0.08 hrs measured by LC/MS-MS analysis; format: ADME, organism-based; conditions: read-out: Drug uptake
[37] = Plasma concentration in male C57BL/6 mouse at 10 mg/kg, ip administered as single dose measured at 6 hrs measured by LC/MS-MS analysis; format: ADME, organism-based
[38] = Plasma concentration in male C57BL/6 mouse at 2 mg/kg, iv administered as single dose measured at 0.08 hrs measured by LC/MS-MS analysis; format: ADME, organism-based
[39] = Plasma concentration in male C57BL/6 mouse at 10 mg/kg, ip administered as single dose measured at 0.08 hrs measured by LC/MS-MS analysis; format: ADME, organism-based
[40] = Antiproliferative activity against human Glioblastoma cell after 72 hrs by MTT assay; format: functional, cell-based; conditions: Glioblastoma cell line

With `COc1c(F)cc(Nc2nc(-c3c(C)nc4ccccn34)cs2)cc1F.Cl` the inhibition [1] was “Active”, the inhibition [2] was “Active” and the inhibition [3] was “Active”. For the same compound, the inhibition [4] was “Active”, the inhibition [5] was “Active” and the inhibition [6] was “Active”.
Compound `Cl.[2H]C1([2H])Oc2ccc(Nc3nc(-c4c(C)nc5ccccn45)cs3)cc2O1` has an AUC [7] of 204.06 ng·h/g, a concentration at 0.35 h [8] of 180 ng/g and a concentration at 0.35 h [9] of 53 ng/g. For the same compound, the Cmax [10] was 430 ng/mL, the AUClast [11] was 171.84 ng·h/g and the concentration at 3 h [12] was 74.9 ng/mL. For the same compound, the bioavailability [13] was 100%, the concentration at 1 h [14] was 109 ng/mL and the concentration at 1 h [15] was 51.9 ng/g. For the same compound, the concentration at 1 h [16] was 13.8 ng/g, the AUClast [17] was 360.87 ng·h/g and the concentration at 3 h [18] was 20.5 ng/g. For the same compound, the Cmax [19] was 44.9 ng/g, the concentration at 6 h [20] was 26 ng/g and the concentration at 0.35 h [21] was 163 ng/mL. It also gave a concentration at 3 h [22] of 82 ng/g, a concentration at 6 h [23] of 45.5 ng/mL and a concentration at 0.08 h [24] of 67.3 ng/g. The concentration at 0.35 h [25] was 44.8 ng/mL, the concentration at 0.35 h [26] was 236 ng/g and the concentration at 3 h [27] was 63.5 ng/mL. For the same compound, the concentration at 0.08 h [28] was 207 ng/mL, the AUClast [29] was 97.08 ng·h/g and the concentration at 6 h [30] was 10.5 ng/g. It also gave a concentration at 1 h [31] of 9.57 ng/mL, a concentration at 0.08 h [32] of 44.9 ng/g and a concentration at 1 h [33] of 232 ng/mL. It also gave a concentration at 0.35 h [34] of 458 ng/mL, a concentration at 1 h [35] of 90.3 ng/g and a concentration at 0.08 h [36] of 288 ng/g. It also gave a concentration at 6 h [37] of 43.7 ng/mL, a concentration at 0.08 h [38] of 256 ng/mL and a concentration at 0.08 h [39] of 469 ng/mL.
In the case of `COc1ccc(Nc2nc(-c3c(C)nc4ccccn34)cs2)cc1`, the IC50 [40] is reported as 10 nM, the inhibition ([4]; tested as the 2H-labelled form) is reported as “Active” and the inhibition ([5]; tested as the 2H-labelled form) is reported as “Active”. For the same compound, the inhibition ([6]; tested as the 2H-labelled form) was “Active”.
With `Cc1nc2ccccn2c1-c1csc(Nc2ccc3c(c2)OCO3)n1` the inhibition ([4]; tested as the 2H-labelled form) was “Active”, the inhibition ([5]; tested as the 2H-labelled form) was “Active” and the inhibition ([6]; tested as the 2H-labelled form) was “Active”.
